The target in one assay is 20S proteasome (Homo sapiens, UniProt P20618+P28074). Particulars: cited from earlier work.
The subject of assay [1] is WSU-DLCL2 lymphoma xenograft. The conditions noted are these: at MTD; cited from earlier work.
For assay [2], the system named is CWR22 human prostate cancer xenografts. The conditions noted are these: cited from earlier work.
The subject of assay [3] is NCI H-929 human multiple myeloma cells. Nature of the assay: NCI-H929 sub-cutaneous xenograft mouse tumor model, 'high' bortezomib dose (Example 7). The conditions noted are these: for Complete response (mice) / No response (mice) / Partial response (mice) / Total RR % (PR+CR): bortezomib 1 mg/kg IV biweekly, cilengitide 45 mg/kg IP QD, N = 10 mice per group. The assay is classed as in vivo. From the text:
This was then continued until Day 21.
Partial response (PR) is defined as the first measurement of the tumor volume being 50% or less of its Day 1 volume for three consecutive measurements during the course of the study, and equal to or greater than 13.5 mm^3 for one or more of these three measurements. In a complete response (CR), the tumor volume was less than 13.5 mm^3 for three consecutive measurements during the course of the study. Total response rate (RR) is the sum of PR+CR. Treatment began on day 1 and was stopped on Day 21.

Assay [4] relates to NCI H-929 Multiple Myeloma Cell Line. Nature of the assay: NCI H-929 sub-cutaneous xenograft, varied BTZ dose, TGI and TTE (Example 8). The assay is classed as in vivo, mouse. Particulars: endpoint day 18. The method, then: Cilengitide or vehicle was supplied as daily intra-peritoneal injection (45 mg/kg). […] After this point, dosing was continued in groups receiving 0.2 mg/kg and 0.5 mg/kg BTZ±cilengitide until day 31 to allow comparative tumour growth delay (i.e. difference in time to endpoint (TTE). […] TTE was calculated as TTE=[log(endpoint volume)-b]/m where TTE is expressed in days, endpoint volume is expressed in mm^3, b is the intercept, and m is the slope of the line obtained by linear regression of a log-transformed tumour growth data set. TTE values were plotted in Kaplan-Meier diagrams (FIGS. 9 and 10).

The target of the next assay is chymotrypsin-like sites (Homo sapiens, UniProt P28074). Particulars: cited from earlier work.
In the next assay the test system is PHTX22L xenografts. Particulars: MTD level treatment; cited from earlier work.
The subject of the next assay is Oci-Ly7-Luc. Particulars: disseminated lymphoma; cited from earlier work.
Another assay concerns DP54-Luc model. Particulars: in vivo; cited from earlier work.
Another assay has as its system Cos7 cells. Nature of the assay: Sulforhodamine B relative cell growth assay in Cos7 cells (Example 2). Type of assay: cell-based. The conditions noted are these: COS-7 (αvβ3 −ve); 10 μM proteasome inhibitor, absence of cRGDfK.
In the next assay the test system is HEK293 cells. As to the kind of experiment: Sulforhodamine B relative cell growth assay in HEK293 cells (Examples 1-3). Type of assay: cell-based. The conditions noted are these: HEK293 (αvβ3 +ve); 10 μM proteasome inhibitor, absence of cRGDfK.
The conditions of assay [5]: phase II trials; heavily pretreated patient population; cited from earlier work.
For assay [6], the system named is chymotrypsin-like activity of the proteasome. Particulars: highest dose used in the phase I trial; cited from earlier work.
For assay [7], the system named is T47D breast cancer cell line. As to the kind of experiment: Sulforhodamine B viability, isobologram and combination index in T47D cells (Examples 4-5). Type of assay: cell-based. The conditions noted are these: single agent at its IC50. The method, then: For assessment of combined BTZ and cilengitide toxicity, T47D cells were seeded at a density of 7500 cells/cm^2 in 96-well cell culture plates and incubated for 24 hours. Cilengitide was diluted to 20 μM in complete DMEM, then 3 serial tenfold dilutions of this were performed in complete DMEM (2 μM, 200 nM and 20 nM). Complete DMEM containing no cilengitide was provided for negative controls.
These dilutions (or DMSO for wells containing no BTZ) were added to aliquots of complete DMEM containing 0-20 μM cilengitide for a 1/150 dilution. Aliquots (0.1 mL) of each mixture were added to wells already containing 0.1 mL medium (in duplicate), resulting in a matrix of cilengitide (10 nM-10 μM) and/or BTZ (1 nM-10 μM) or neither agent (diluent only).
OD570nm readings were divided by those resulting from negative control (diluent only) wells and expressed as a percentage. Three independent replicates of this experiment were carried out.
The isoboles were obtained similarly by extrapolation of points representing 50% reduction in viability from line graphs of % viability versus concentration of one agent at variable concentration with the other agent supplied at a fixed concentration. […]

[8] abbreviates: at maximum tolerated dose (MTD).

Where two headings read alike, the source gives them in different places.

Sequence of chymotrypsin-like sites (P28074 60-263): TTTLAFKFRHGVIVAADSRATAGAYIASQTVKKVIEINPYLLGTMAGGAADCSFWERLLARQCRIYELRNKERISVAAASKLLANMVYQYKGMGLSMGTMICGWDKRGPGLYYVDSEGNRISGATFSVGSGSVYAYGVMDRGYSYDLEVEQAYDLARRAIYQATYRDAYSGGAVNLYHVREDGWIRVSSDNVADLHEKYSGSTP
Description for HEK293 cells: Established methodology was used to prepare 80-100% confluent monolayers of HEK293 cells in T75 flasks. Cells were cultured in DMEM (Lonza) supplemented with 10% FBS (Gibco), 2 mM L-glutamine, 100 U/mL penicillin and 100 μg/mL streptomycin (“complete DMEM”).
The cells in T75 flasks were trypsinised and resuspended in complete DMEM. The cells were counted using a Neubauer chamber and seeded at approximate density of 3×10^4 cells/cm^2 and 7500 cells/cm^2 in 96 well flat bottomed tissue culture plates (Corning) 0.1 mL cell suspension per well. Cells were incubated for 24 hours at 37° C./5% CO2 (humidified).
To provide a working stock, BTZ was diluted to 10 mM in DMSO. […]
Briefly: medium was removed from wells and replaced with an equal volume of PBS. […] Optical density (OD570nm) was determined using an ELISA plate reader (Dynex MRX, Dynex Technologies).
In total, 5 replicates of the experiment were carried out. Cells treated with peptide/BTZ mixtures or control mixtures were incubated for 24 hours at 37° C./5% CO2 (humidified) then analysed by sulforhodamine B assay.
The average of the background measurements (i.e. no cells, medium only) was subtracted from each reading. ‘Ti’ is OD570nm following 24 hours treatment with drugs. […]
Using these equations, control cell growth is assigned a relative cell growth value of 100% and all cell growth values are calculated relative to this figure. […]

On to `CC(C)C[C@H](NC(=O)[C@H](Cc1ccccc1)NC(=O)c1cnccn1)B(O)O` [Bortezomib], for which the proteasome dissociation half-life result at 20S proteasome is “approximately 110 minutes”. Also, the anti-tumoral activity result in assay [1] is on record as “ineffective”; in assay [2] (setting [8]) it was “effective anti-tumoral activity”. In addition, the “animals that relapsed (complete relapse)” value in assay [3] (By Day 42, of 10 animals per group) worked out at 3. In addition, the “Tumour growth inhibition (TGI)” value in assay [4] (0.5 mg/kg BTZ and below, without cilengitide) was “virtually ineffective”; in [4] (BTZ doses of 0.7 mg/kg and greater, biweekly i.v.) it was “almost complete TGI”.

For the compound `C[C@@]12OC(=O)[C@]1([C@@H](O)[C@@H]1C=CCCC1)NC(=O)[C@@H]2CCCl` [Marizomib], the “inhibition of the chymotrypsin-like sites” value on chymotrypsin-like sites is listed as “up to 100%”.

For `CC(C)C[C@H](NC(=O)CNC(=O)c1cc(Cl)ccc1Cl)B(O)O` [Ixazomib, [(1R)-1-[[2-[(2,5-dichlorobenzoyl)amino]acetyl]amino]-3-methyl-butyl]boronic acid], the proteasome dissociation half-life entry at 20S proteasome is “approximately 18 minutes”. For the same compound, the “release from the proteasome relative to bortezomib” value at 20S proteasome (faster than bortezomib) is “approximately 6 fold”. Further, the anti-tumoral effect result in the assay with PHTX22L xenografts is listed as “only ixazomib was found to exhibit an anti-tumoral effect”. For the same compound, in the assay on Oci-Ly7-Luc, the antitumoral effect result is on record as “improved antitumoral effect compared with bortezomib”. Moreover, the anti-tumoral activity entry in assay [1] is listed as “significant anti-tumoral activity”; in assay [2] (at half the MTD) it was “more effective than bortezomib”; in assay [2] (setting [8]), “effective anti-tumoral activity”. Also, the “alleviation of osteolytic bone disease” value with DP54-Luc model is reported as “effective in the alleviation of osteolytic bone disease”.

On to `CC(C)C[C@H](NC(=O)[C@H](CCc1ccccc1)NC(=O)CN1CCOCC1)C(=O)N[C@@H](Cc1ccccc1)C(=O)N[C@@H](CC(C)C)C(=O)[C@@]1(C)CO1` [Carfilzomib], for which the “cell growth relative to untreated control cells” value in the assay with Cos7 cells was “greater activity than ixazomib, delanzomib and oprozomib”; in the assay on HEK293 cells it was “greater activity than ixazomib, delanzomib and oprozomib”. For the same compound, in assay [5], the partial response rate is listed as 24%. Moreover, in assay [6], the “inhibition of the chymotrypsin-like activity of the proteasome in blood of patients” value is 88%.

Consider `CC(C)[C@H]1C(=O)N[C@@H](CCCN=C(N)N)C(=O)NCC(=O)N[C@@H](CC(=O)O)C(=O)N[C@H](Cc2ccccc2)C(=O)N1C` [Cilengitide], for which the “Complete response (mice)” value in assay [3] (Day 1), in [3] (Day 4), in assay [3] (Day 8), in assay [3] (Day 12), in [3] (Day 15) and in assay [3] (Day 18) was 0 throughout. In assay [3] (Day 21), the “Complete response (mice)” value is 0. Further, the “No response (mice)” value in [3] (Day 1), in assay [3] (Day 4), in [3] (Day 8), in [3] (Day 12), in assay [3] (Day 15) and in assay [3] (Day 18) was 10 each time. The “No response (mice)” value in [3] (Day 21) was found to be 10. For the same compound, the “Partial response (mice)” value in assay [3] (Day 1), in [3] (Day 4), in assay [3] (Day 8), in assay [3] (Day 12), in [3] (Day 15) and in assay [3] (Day 18) was 0 each time. Besides, in assay [3] (Day 21), the “Partial response (mice)” value stood at 0. Besides, the “Total RR % (PR+CR)” value in assay [3] (Day 1), in assay [3] (Day 4), in assay [3] (Day 8), in assay [3] (Day 12), in assay [3] (Day 15) and in [3] (Day 18) was 0% throughout. In addition, the “Total RR % (PR+CR)” value in [3] (Day 21) is 0%. The “CI (combination index)” value in assay [7] is 1.00.

Source of the values: patent US10328116B2, “Combinations of proteasome inhibitors and cyclic peptides” (BIG DNA LTD, priority 2014, dated 2019).
